Assay results reported in article PMC6934184, “Selective DNA-PKcs inhibition extends the therapeutic index of localized radiotherapy and chemotherapy” (The Journal of Clinical Investigation, 2019).

Biological target: T1, CAMK2G (CaMKII gamma) (Homo sapiens, UniProt Q13555)
T1 construct: purchased Thermo Fisher Scientific (Life Technologies) SelectScreen
Assay: SelectScreen LanthaScreen
Format: binding
Settings: read-out: % displacement
How it was run: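 SelectScreen broad panel; activity (Z'LYTE, Adapta) plus binding formats. ATP: Km app for CSF1R Z'LYTE; 10 for CAMK1 Adapta. Readout = % per kinase.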

T1 sequence (Q13555 whole entry): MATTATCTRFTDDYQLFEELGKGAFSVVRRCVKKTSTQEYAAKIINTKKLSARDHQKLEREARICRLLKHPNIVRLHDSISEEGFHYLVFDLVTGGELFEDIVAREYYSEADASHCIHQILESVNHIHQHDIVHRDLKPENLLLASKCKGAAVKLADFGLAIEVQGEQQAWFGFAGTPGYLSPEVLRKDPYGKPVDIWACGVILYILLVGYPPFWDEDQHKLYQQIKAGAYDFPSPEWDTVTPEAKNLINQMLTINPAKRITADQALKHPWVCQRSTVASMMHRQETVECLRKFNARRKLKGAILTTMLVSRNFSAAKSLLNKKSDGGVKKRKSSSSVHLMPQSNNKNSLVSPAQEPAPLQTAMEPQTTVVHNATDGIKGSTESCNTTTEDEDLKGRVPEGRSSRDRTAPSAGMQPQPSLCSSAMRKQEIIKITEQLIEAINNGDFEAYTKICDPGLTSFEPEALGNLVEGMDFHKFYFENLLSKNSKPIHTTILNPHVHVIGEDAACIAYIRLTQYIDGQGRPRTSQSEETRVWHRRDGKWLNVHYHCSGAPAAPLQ

**Q.** Which inhibition at 1 µM does the source give for `CN(C(=O)CN1CCOCC1)c1ccc2sc3c(-c4cccc5c(=O)cc(N6CC7CCC(C6)O7)oc45)cccc3c2c1` [NU5455] here?
**A.** Its inhibition at 1 µM is -0.8%.
